Experiments:
MCF7 = assay: CCK-8 proliferation, MCF7 (MCF-7); type: cell-based; conditions: Homo sapiens, MCF7; CCK-8; read-out: Inhibitory activity (IC50) on tumor cell proliferation, MCF7
Description: (§1) The tumor cells used herein were cultured in a cell culture medium listed in table A1 at 37°C in an incubator with 5% CO2. Prior to experimentation, all cell lines used were correctly identified by STR profiling, and tested negative for mycoplasma contamination using a mycoplasma detection kit through routine screenings. Table A1. Tumor cells and cell culture medium used in the present disclosure
(§2) IC50 values of the compounds of the present disclosure (including the compounds in Table 1, and compounds of examples) were measured using the Meilun Cell Counting Kit-8 kit from Dalian Meilun Biotech Co., Ltd. Assay details are as follows: tumor cells were seeded in a 96-well plate at a density listed in Table A2. After 24h, 100 µL of the inoculated cells were treated with 0.5µL of the compounds of the present disclosure (including the compounds in Tables 1 and 2, and compounds of examples) at 10 different successively decreasing concentrations (starting at the highest concentration of 10µM; 5-fold serial dilutions). After the cells were treated with the compounds of the present disclosure for a period of time, the cell viability detection reagent was added to the culture medium for cell viability assessment according to the instructions provided with the CCK-8 kit. […] The growth inhibition of the compounds of the present disclosure on cells was plotted by Prism Graphpad software, and the IC50 values of the compounds of the present disclosure were calculated therefrom. […] Seeding protocol and treatment time for tumor cells

H2228 = assay: CCK-8 proliferation, NCI-H2228 (H2228); type: cell-based; conditions: Homo sapiens, NCI-H2228; Table B6, compounds designed based on the ALK inhibitors; H2228 cells; read-out: Inhibitory activity (IC50, nM) on tumor cell proliferation, H2228
Description: as §1, §2

SR = assay: CCK-8 proliferation, SR; type: cell-based, Human; conditions: Homo sapiens; Table B6, compounds designed based on the ALK inhibitors; SR cells; read-out: Inhibitory activity (IC50, nM) on tumor cell proliferation, SR
Description: as §1, §2

H1975 = assay: CCK-8 proliferation, NCI-H1975 (H1975); type: cell-based, Human; conditions: Homo sapiens, NCI-H1975; CCK-8; 96 hours; read-out: Inhibitory activity (IC50) on tumor cell proliferation, H1975
Description: as §1, §2

| Compound | IC50 (H1975) [µM] | other results |
| --- | --- | --- |
| CC(=O)c1c(C)c2cnc(Nc3ccc(N4CCN(Cc5cccc(N6CCC(=O)NC6=O)c5)CC4)cn3)nc2n(C2CCCC2)c1=O [GT-06577, 1-(3-((4-(6-((6-acetyl-8-cyclopentyl-5-methyl-7-oxo-7,8-dihydropyrido[2,3-d]pyrimidin-2-yl)amino)pyridin-3-yl)piperazin-1-yl)methyl)phenyl)dihydropyr imidine-2,4(1H,3H)-dione] | – | IC50 (MCF7): 0.1 to 0.5 µM |
| Cc1cc(Nc2ncc(Cl)c(Nc3ccccc3S(=O)(=O)C(C)C)n2)c(OC(C)C)cc1C1CCN(Cc2ccc(C3CCC(=O)NC3=O)c(F)c2)CC1 (stereo not drawn) [GT-07365, 3-(4-((4-(4-((5-chloro-4-((2-(isopropylsulfonyl)phenyl)amino)pyrimidin-2-yl)amino)-5-isopropoxy-2-methylphenyl)piperidin-1-yl)methyl)-2-fluorophenyl)piperidine-2,6-dione] | – | IC50 (H2228): 100 to 500 nM; IC50 (SR): 100 to 500 nM |
| Cc1cc(Nc2ncc(Cl)c(Nc3ccccc3S(=O)(=O)C(C)C)n2)c(OC(C)C)cc1C1CCN(Cc2cc(C3CCC(=O)NC3=O)cnc2F)CC1 (stereo not drawn) [GT-07598, 3-(5-((4-(4-((5-chloro-4-((2-(isopropylsulfonyl)phenyl)amino)pyrimidin-2-yl)amino)-5-isopropoxy-2-methylphenyl)piperidin-1-yl)methyl)-6-fluoropyridin-3-yl)piperidine-2,6-dione] | – | IC50 (H2228): 100 to 500 nM; IC50 (SR): 100 to 500 nM |
| O=C1CCN(c2ccc(CN3C[C@H]4C[C@@H]3CN4c3ccc(-c4cc(F)c5c(c4)C(=O)N(C(C(=O)Nc4nccs4)c4ncn6c4CCC6)C5)cc3)cn2)C(=O)N1 (stereo partly drawn) [GT-06191, 2-(6,7-dihydro-5H-pyrrolo[1,2-c]imidazol-1-yl)-2-(6-(4-((1R,4R)-5-((6-(2,4-dioxotetrahydropyrimidin-1(2H)-yl)pyridin-3-yl)methyl)-2,5-diazabicyclo[2.2.1]heptan-2-yl)phenyl)-4-fluoro-1-oxoisoindolin-2-yl)-N-(thiazol-2-yl)acetamide] | 0.001 to 0.01 | – |
| CCc1cc2c(cc1N1CCC(N3CCN(Cc4cccc(NC5CCC(=O)NC5=O)c4)CC3)CC1)C(C)(C)c1[nH]c3cc(C#N)ccc3c1C2=O (stereo not drawn) [GT-07313, 8-(4-(4-(3-((2,6-dioxopiperidin-3-yl)amino)benzyl)piperazin-1-yl)piperidin-1-yl)-9-ethyl-6,6-dimethyl-11-oxo-6,11-dihydro-5H-benzo[b]carbazole-3-carbonitrile] | – | IC50 (H2228): 100 to 500 nM; IC50 (SR): 1 to 10 nM |
| O=C1CCN(c2cccc(CN3CCC(N4CCN(c5ccc(-c6cc(F)c7c(c6)C(=O)N(C(C(=O)Nc6nccs6)c6ncn8c6CCC8)C7)cc5)CC4)CC3)c2)C(=O)N1 (stereo not drawn) [GT-06328, 2-(6,7-dihydro-5H-pyrrolo[1,2-c]imidazol-1-yl)-2-(6-(4-(4-(1-(3-(2,4-dioxotetrahydropyrimidin-1(2H)-yl)benzyl)piperidin-4-yl)piperazin-1-yl)phenyl)-4-fluoro-1-oxoisoindolin-2-yl)-N-(thiazol-2-yl)acetamide] | 0.001 to 0.01 | – |
| O=C1CCN(c2cc(CN3C[C@H]4C[C@@H]3CN4c3ccc(-c4cc(F)c5c(c4)C(=O)N(C(C(=O)Nc4nccs4)c4ncn6c4CCC6)C5)cc3)ccn2)C(=O)N1 (stereo partly drawn) [GT-07387, 2-(6,7-dihydro-5H-pyrrolo[1,2-c]imidazol-1-yl)-2-(6-(4-((1R,4R)-5-((2-(2,4-dioxotetrahydropyrimidin-1(2H)-yl)pyridin-4-yl)methyl)-2,5-diazabicyclo[2.2.1]heptan-2-yl)phenyl)-4-fluoro-1-oxoisoindolin-2-yl)-N-(thiazol-2-yl)acetamide] | 0.001 to 0.01 | – |
| COc1cc(N2CCN(Cc3cncc(N4CCC(=O)NC4=O)c3)CC2)ccc1Nc1ncc(Cl)c(Nc2ccccc2P(C)(C)=O)n1 [GT-07709, 1-(5-((4-(4-((5-chloro-4-((2-(dimethylphosphoryl)phenyl)amino)pyrimidin-2-yl)amino)-3-methoxyphenyl)piperazin-1-yl)methyl)pyridin-3-yl)dihydropyrimidine-2,4(1H,3H)-dione] | – | IC50 (H2228): 500 to 1000 nM; IC50 (SR): 50 to 100 nM |
| O=C1CCC(c2ccc(CN3C[C@H]4C[C@@H]3CN4c3ccc(-c4cc(F)c5c(c4)C(=O)N(C(C(=O)Nc4nccs4)c4ncn6c4CCC6)C5)cc3)cc2)C(=O)N1 (stereo partly drawn) [GT-06176, 2-(6,7-dihydro-5H-pyrrolo[1,2-c]imidazol-1-yl)-2-(6-(4-((1R,4R)-5-(4-(2,6-dioxopiperidin-3-yl)benzyl)-2,5-diazabicyclo[2.2.1]heptan-2-yl)phenyl)-4-fluoro-1-oxoisoindolin-2-yl)-N-(thiazol-2-yl)acetamide] | 0.001 to 0.01 | – |

Second part, led by results:

| IC50 (H1975) [µM] | Compound | other results |
| --- | --- | --- |
| 0.001 to 0.01 | O=C1CCC(c2cncc(CN3CCN(c4ccc(-c5cc(F)c6c(c5)C(=O)N(C(C(=O)Nc5nccs5)c5ncn7c5CCC7)C6)cc4)CC3)c2)C(=O)N1 (stereo not drawn) [GT-07472, 2-(6,7-dihydro-5H-pyrrolo[1,2-c]imidazol-1-yl)-2-(6-(4-(4-((5-(2,6-dioxopiperidin-3-yl)pyridin-3-yl)methyl)piperazin-1-yl)phenyl)-4-fluoro-1-oxoisoindolin-2-yl)-N-(thiazol-2-yl)acetamide] | – |
| 0.001 to 0.01 | CN(Cc1ccc(N2CCC(=O)NC2=O)nc1)C1CCN(c2ccc(-c3cc(F)c4c(c3)C(=O)N(C(C(=O)Nc3nccs3)c3ncn5c3CCC5)C4)cc2)CC1 (stereo not drawn) [GT-05283, 2-(6,7-dihydro-5H-pyrrolo[1,2-c]imidazol-1-yl)-2-(6-(4-(4-(((6-(2,4-dioxotetrahydropyrimidin-1(2H)-yl)pyridin-3-yl)methyl)(methyl)amino)piperidin-1-yl)phenyl)-4-fluoro-1-oxoisoindolin-2-yl)-N-(thiazol-2-yl)acetamide] | – |
| 0.001 to 0.01 | CN(Cc1cncc(N2CCC(=O)NC2=O)c1)C1CCN(c2ccc(-c3cc(F)c4c(c3)C(=O)N(C(C(=O)Nc3nccs3)c3ncn5c3CCC5)C4)cc2)CC1 (stereo not drawn) [GT-07384, 2-(6,7-dihydro-5H-pyrrolo[1,2-c]imidazol-1-yl)-2-(6-(4-(4-(((5-(2,4-dioxotetrahydropyrimidin-1(2H)-yl)pyridin-3-yl)methyl)(methyl)amino)piperidin-1-yl)phenyl)-4-fluoro-1-oxoisoindolin-2-yl)-N-(thiazol-2-yl)acetamide] | – |
| 0.001 to 0.01 | CN(Cc1cccnc1NC1CCC(=O)NC1=O)C1CCN(c2ccc(-c3cc(F)c4c(c3)C(=O)N(C(C(=O)Nc3nccs3)c3ncn5c3CCC5)C4)cc2)CC1 (stereo not drawn) [GT-07561, 2-(6,7-dihydro-5H-pyrrolo[1,2-c]imidazol-1-yl)-2-(6-(4-(4-(((2-((2,6-dioxopiperidin-3-yl)amino)pyridin-3-yl)methyl)(methyl)amino)piperidin-1-yl)phenyl)-4-fluoro-1-oxoisoindolin-2-yl)-N-(thiazol-2-yl)acetamide] | – |
| 0.001 to 0.01 | CN(Cc1ccc(N2CCC(=O)NC2=O)cc1)C1CCN(c2ccc(-c3cc(F)c4c(c3)C(=O)N(C(C(=O)Nc3nccs3)c3ncn5c3CCC5)C4)cc2)CC1 (stereo not drawn) [GT-05219, 2-(6,7-dihydro-5H-pyrrolo[1,2-c]imidazol-1-yl)-2-(6-(4-(4-((4-(2,4-dioxotetrahydropyrimidin-1(2H)-yl)benzyl)(methyl)amino)piperidin-1-yl)phenyl)-4-fluoro-1-oxoisoindolin-2-yl)-N-(thiazol-2-yl)acetamide] | – |
